This note sets out measurements from paper PMC11494662, “Insight into the Course of the Ferrier Rearrangement Used to Obtain Untypical Diosgenyl Saponins” (The Journal of Organic Chemistry, 2024).

As a reminder, the IC50 is the concentration needed to halve the response being measured. Read a high IC50 as lower potency.

For assay [1], the system named is prostate cancer cells (PC3 line). The assay can be described thus: MTT cytotoxicity assay, PC3. It is filed as cell-based, human. To be noted: for IC50: Homo sapiens, PC-3, PC3 cells, 48 h treatment, MTT; for SI PC3 (selectivity index): ratio of IC50 for normal cell line (HaCaT) to IC50 for PC3, 48 h. The method, then: (§1) The MTT assay was performed to specify the cytotoxicity of 7–12 and 13–18 against prostate cancer cells (PC3 line), breast cancer cells (MCF7 line), and human keratinocytes (HaCaT line). The mentioned cell lines were assayed by exposing them for 48 h to a medium containing the studied compounds over a wide range of concentrations. The IC50 values (dose of the compound which caused a 50% reduction of cell viability) and the selectivity indexes (SI), which show the ratio of IC50 for normal cell line to IC50 for cancer cell line, are shown in Table S2. An MTT assay was performed to specify the cytotoxicity of the studied compounds against breast cancer cells (MCF-7 line, ATCC), prostate cancer cells (PC3 line, ATCC) and human keratinocytes (HaCaT line, CLS). The MCF-7 cell line was cultured in an RPMI 1640 medium (Gibco, Thermo Fisher Scientific), the PC3 cell line in a F-12K medium (Gibco, Thermo Fisher Scientific), and the HaCaT cell line in a high-glucose DMEM (Gibco, Thermo Fisher Scientific). Each medium was supplemented with 10% fetal bovine serum (Gibco, Thermo Fisher Scientific) and antibiotics (penicillin and streptomycin, Gibco, Thermo Fisher Scientific). Cells were seeded at a density of 4000 per well into 96-well plates and incubated at 37 °C in a 5% CO2 atmosphere. The cells were treated with studied compounds in a concentration range of 0.1–100 μg/mL or with a vehicle (1% DMSO) as a control and subsequently incubated for 48 h. Thereafter, the MTT salt solution (3-(4,5-dimethylthiazol-2-yl)-2,5-diphenyltetrazolium bromide, VWR) was added at a concentration of 4 mg/mL (25 μL per well), and the obtained product (formazan) after 3 h of incubation was dissolved in DMSO. An EnSpire microplate reader (PerkinElmer) was used to measure absorbance at 570 nm (the reference wavelength was 660 nm). The viability of the control cells was taken as 100%. Three independent experiments were conducted in triplicate. Statistical analysis of the results and estimation of IC50 values were performed using GraphPad Prism 7 software.
(Tetrazolium assays rely on reduction of a dye to a coloured formazan, in cell work by metabolically active cells.)

The test system of assay [2] is breast cancer cells (MCF-7 line). The assay can be described thus: MTT cytotoxicity assay, MCF7. It is filed as cell-based, human. To be noted: for IC50: Homo sapiens, MCF7 cells, 48 h treatment, MTT; for SI MCF7 (selectivity index): ratio of IC50 for normal cell line (HaCaT) to IC50 for MCF7, 48 h. How it is done: as §1
In assay [3] the test system is human keratinocytes (HaCaT line). The assay can be described thus: MTT cytotoxicity assay, HaCaT. It is filed as cell-based. To be noted: Homo sapiens, HaCaT normal cells, 48 h treatment. The method, then:
as §1

A further assay deals with E. faecium ATCC 29212. The assay can be described thus: MIC, broth dilution method. To be noted: Enterococcus faecium, ATCC29212; MHB II, 18 h, 37 °C; read-out: Minimum inhibitory concentration E. faecium ATCC 29212. It is filed as cell-based. The method, then: (§2) MIC was determined with the dilution method in Mueller–Hinton II broth (MHB II) on 96-well polystyrene plates. The reference strains (Polish Academy of Sciences, Wroclaw, Poland) of Gram-positive bacteria (Enterococcus faecium ATCC 29,212, S. aureus ATCC 6538, S. aureus ATCC 43,300, S. aureus ATCC 12,598, S. aureus ATCC 25,923, S. aureus, ATCC 33,591, Staphylococcus epidermidis ATCC 14,990) and Gram-negative bacteria (Acinetobacter baumanii ATCC 23,506, Escherichia coli ATCC 25,922, Klebsiella pneumoniae ATCC 700,603, Pseudomonas aeruginosa ATCC 9027) were suspended in MHB II medium to initial inoculum of 10^5 cfu/mL. The microbes were exposed to graded concentrations of tested compounds (range 0.5–256 mg/L) for 18 h at 37 °C under aerobic conditions. The compounds were dissolved in DMSO and then diluted with PBS. […] MIC was taken as the lowest concentration at which no microbial growth was observed. The experiments were performed in triplicate.
For orientation: In broth dilution the organism is exposed to a series of concentrations in liquid medium.

The test system of a further assay is S. aureus ATCC 12598. The assay can be described thus: MIC, broth dilution method. To be noted: Staphylococcus aureus, ATCC12598; MHB II, 18 h, 37 °C; read-out: Minimum inhibitory concentration S. aureus ATCC 12598. It is filed as cell-based. The method, then: as §2
The subject of a further assay is S. aureus ATCC 25923. Nature of the assay: MIC, broth dilution method. It is filed as cell-based. To be noted: Staphylococcus aureus, ATCC25923; MHB II, 18 h, 37 °C; read-out: Minimum inhibitory concentration S. aureus ATCC 25923. How it is done:
as §2

A further assay relates to S. aureus ATCC 33591. Nature of the assay: MIC, broth dilution method. It is filed as cell-based. To be noted: Staphylococcus aureus, ATCC33591; MHB II, 18 h, 37 °C; read-out: Minimum inhibitory concentration S. aureus ATCC 33591. How it is done: as §2
In another assay the test system is S. aureus ATCC 43300. Nature of the assay: MIC, broth dilution method. It is filed as cell-based. To be noted: Staphylococcus aureus, ATCC43300; MHB II, 18 h, 37 °C; read-out: Minimum inhibitory concentration S. aureus ATCC 43300. How it is done:
as §2

The subject of a further assay is S. aureus ATCC 6538. The assay can be described thus: MIC, broth dilution method. It is filed as cell-based. To be noted: Staphylococcus aureus, ATCC6538; MHB II, 18 h, 37 °C; read-out: Minimum inhibitory concentration S. aureus ATCC 6538. The method, then:
as §2

Assay [4] relates to S. epidermidis ATCC 14990. The assay can be described thus: MIC, broth dilution method. It is filed as cell-based. To be noted: Staphylococcus epidermidis, ATCC14990; MHB II, 18 h, 37 °C; read-out: Minimum inhibitory concentration S. epidermidis ATCC 14990. How it is done:
as §2

Assay [5] has as its system Staphylococcus aureus strains tested, including methicilin-resistant S. aureus. Nature of the assay: Antistaphylococcal activity, summary over the strains tested. It is filed as cell-based. To be noted: range over the S. aureus strains tested. How it is done:
as §2

Converted amounts (≈) assume the structure as drawn.

As to `C[C@@H]1CC[C@@]2(OC1)O[C@H]1C[C@H]3[C@@H]4CC=C5C[C@@H](O[C@@H]6CC[C@H](O)CO6)CC[C@]5(C)[C@H]4CC[C@]3(C)[C@H]1[C@@H]2C` [17α], the IC50 in assay [1] was 73.2 µM; in assay [2], 68.2 µM; in [3], 48.3 µM. Besides, the “SI PC3 (selectivity index)” value in assay [1] is 0.66. In addition, in assay [2], the “SI MCF7 (selectivity index)” value was 0.71. Further, the MIC in the assay on E. faecium ATCC 29212 is over 256 mg/L; in the assay with S. aureus ATCC 12598, 256 mg/L (≈ 497 µM); with S. aureus ATCC 25923 it was 256 mg/L (≈ 497 µM); with S. aureus ATCC 33591, 256 mg/L (≈ 497 µM); in the assay on S. aureus ATCC 43300, 128 mg/L (≈ 249 µM); in the assay with S. aureus ATCC 6538, 128 mg/L (≈ 249 µM). In addition, the MIC in [4] is over 256 mg/L. Besides, the “concentrations at which antistaphylococcal activity was achieved” value in assay [5] was in the range of 128 to 256 mg/L.
On to `C[C@@H]1CC[C@@]2(OC1)O[C@H]1C[C@H]3[C@@H]4CC=C5C[C@@H](O[C@@H]6CC[C@@H](O)[C@@H](CO)O6)CC[C@]5(C)[C@H]4CC[C@]3(C)[C@H]1[C@@H]2C` [14α, Diosgenyl 2,3-Dideoxy-α-D-threo-hexopyranoside], for which the IC50 in assay [1] was found to be 41.1 µM; in assay [2], 25 µM; in assay [3], 53.2 µM. The “SI PC3 (selectivity index)” value in [1] is given as 1.29. The “SI MCF7 (selectivity index)” value in assay [2] is listed as 2.13. Moreover, the MIC was over 256 mg/L with E. faecium ATCC 29212; 256 mg/L (≈ 470 µM) in the assay with S. aureus ATCC 12598; 64 mg/L (≈ 117 µM) in the assay with S. aureus ATCC 25923; 256 mg/L (≈ 470 µM) in the assay on S. aureus ATCC 33591; 128 mg/L (≈ 235 µM) in the assay on S. aureus ATCC 43300; 64 mg/L (≈ 117 µM) in the assay on S. aureus ATCC 6538. Also, the MIC in [4] was over 256 mg/L. Also, the “concentrations at which antistaphylococcal activity was achieved” value in assay [5] is 64 to 256 mg/L.
As to `C[C@@H]1CC[C@@]2(OC1)O[C@H]1C[C@H]3[C@@H]4CC=C5C[C@@H](OC6CC[C@H](O)CO6)CC[C@]5(C)[C@H]4CC[C@]3(C)[C@H]1[C@@H]2C` (stereo partly drawn) [17β], the IC50 in [1] was determined as 23.2 µM; in assay [2], 26.3 µM; in assay [3], 33.9 µM. The “SI PC3 (selectivity index)” value in [1] worked out at 1.46. In addition, the “SI MCF7 (selectivity index)” value in assay [2] stood at 1.29. Further, the MIC with E. faecium ATCC 29212 is over 256 mg/L; with S. aureus ATCC 12598, over 256 mg/L; in the assay on S. aureus ATCC 25923 it was over 256 mg/L; in the assay with S. aureus ATCC 33591, over 256 mg/L; with S. aureus ATCC 43300, over 256 mg/L; in the assay on S. aureus ATCC 6538, 256 mg/L (≈ 497 µM). In addition, the MIC in [4] is over 256 mg/L.
On to `C[C@@H]1CC[C@@]2(OC1)O[C@H]1C[C@H]3[C@@H]4CC=C5C[C@@H](O[C@@H]6C=C[C@@H](O)[C@@H](CO)O6)CC[C@]5(C)[C@H]4CC[C@]3(C)[C@H]1[C@@H]2C` [8α, Diosgenyl 2,3-Dideoxy-α-D-threo-hex-2-enopyranoside], for which the IC50 in [1] is 21.4 µM; in assay [2], 44.9 µM; in [3], 22.2 µM. Also, in assay [1], the “SI PC3 (selectivity index)” value is listed as 1.04. In [2], the “SI MCF7 (selectivity index)” value came out at 0.49. Further, the MIC in the assay with E. faecium ATCC 29212, in the assay with S. aureus ATCC 12598, with S. aureus ATCC 25923, in the assay with S. aureus ATCC 33591, in the assay with S. aureus ATCC 43300 and with S. aureus ATCC 6538 was over 256 mg/L in each case. For the same molecule, the MIC in assay [4] was over 256 mg/L.
For `C[C@@H]1CC[C@@]2(OC1)O[C@H]1C[C@H]3[C@@H]4CC=C5C[C@@H](O[C@H]6CC[C@H](O)[C@H](C)O6)CC[C@]5(C)[C@H]4CC[C@]3(C)[C@H]1[C@@H]2C` [16α, Diosgenyl 2,3,6-Trideoxy-α-L-threo-hexopyranoside], the figures for the IC50 in [1], in assay [2] and in assay [3] were 29.9 µM, 36.6 µM and 30.6 µM, respectively. Besides, in assay [1], the “SI PC3 (selectivity index)” value is 1.02. Moreover, the “SI MCF7 (selectivity index)” value in assay [2] worked out at 0.84. Besides, the MIC in the assay with E. faecium ATCC 29212, in the assay with S. aureus ATCC 12598, with S. aureus ATCC 25923, with S. aureus ATCC 33591, in the assay with S. aureus ATCC 43300 and with S. aureus ATCC 6538 was over 256 mg/L in each case. Further, in assay [4], the MIC is over 256 mg/L.
Turning to `C[C@@H]1CC[C@@]2(OC1)O[C@H]1C[C@H]3[C@@H]4CC=C5C[C@@H](O[C@@H]6C=C[C@H](O)[C@@H](CO)O6)CC[C@]5(C)[C@H]4CC[C@]3(C)[C@H]1[C@@H]2C` [7α, Diosgenyl 2,3-Dideoxy-α-D-erythro-Hex-2-enopyranoside], the IC50 in assay [1] stood at 16.8 µM; in assay [2], 56.1 µM; in assay [3], 20.2 µM. In addition, in assay [1], the “SI PC3 (selectivity index)” value came to 1.20. In assay [2], the “SI MCF7 (selectivity index)” value worked out at 0.36. Further, the MIC in the assay on E. faecium ATCC 29212 is 256 mg/L (≈ 472 µM); with S. aureus ATCC 12598, over 256 mg/L; with S. aureus ATCC 25923 it was over 256 mg/L; with S. aureus ATCC 33591, over 256 mg/L; in the assay on S. aureus ATCC 43300, over 256 mg/L; in the assay with S. aureus ATCC 6538, 256 mg/L (≈ 472 µM). The MIC in assay [4] came to 256 mg/L (≈ 472 µM).
